Tested on: HT29 human colon tumour cells
Test: Cell proliferation assays
Assay type: cell-based
Conditions: HT-29, 72 hours
Description: Cell Proliferation Assays Cells were seeded into multi-well plates at 20000–40000 cells/ml in growth medium containing 5% FCS and incubated overnight at 37° C. The compounds were prepared in fresh medium at an appropriate concentration and added to the wells containing the cells. These were then incubated for a further 72 hours. Cells were then either removed from the wells by incubating with trypsin/EDTA and counted using a Coulter counter, or treated with XTT/PMS in PBSA and optical densities read at 450 nm.

- IC50: 1300 nM
Structure (SMILES): CNC(=O)COc1ccccc1Oc1ccc(Nc2c(C#N)cnc3cc(NCCCN4CCOCC4)c(OC)cc23)cc1 [Compound 11]

— patent US7067532B2, “Substituted quinolines as antitumor agents” (AstraZeneca, priority 2000, dated 2006)
